Assay results reported in PubChem BioAssay AID1963964 (Molecular Pharmacology Branch, DTP, NCI, 2024).

System: 997726-040-R-J2-PDC tumor spheroids, viability
Test: Anticancer human tumor 997726-040-R-J2-PDC patient-derived squamous cell lung carcinoma cell line growth inhibition [PI3K]
Conditions: spheroids with HUVEC and MSC; for IC50: curve of first compound; for viability, T/C: stronger effect = lower value
Procedure, shortened: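 Spheroid viability read-out. Co-cultures contained the tumor line plus HUVEC and human MSCs. Each agent was paired with a PI3K inhibitor (inavolisib, alpelisib, duvelisib, copanlisib) across half-log dilutions starting at clinical Cmax, or at 10 microM when Cmax was unknown.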

[1] = second compound 0.00316 µM, first compound 0.0316 µM
[2] = second compound 0.00316 µM, first compound 0.1 µM
[3] = second compound 0.00316 µM, first compound 0.316 µM
[4] = second compound 0.00316 µM, first compound 1 µM
[5] = second compound 0.00316 µM, first compound 3.16 µM
[6] = second compound 0.00316 µM, first compound 10 µM
[7] = second compound 0.01 µM, first compound 0.0316 µM
[8] = second compound 0.01 µM, first compound 0.1 µM
[9] = second compound 0.01 µM, first compound 0.316 µM
[10] = second compound 0.01 µM, first compound 1 µM
[11] = second compound 0.01 µM, first compound 3.16 µM
[12] = second compound 0.01 µM, first compound 10 µM
[13] = second compound 0.0316 µM, first compound 0.0316 µM
[14] = second compound 0.0316 µM, first compound 0.1 µM
[15] = second compound 0.0316 µM, first compound 0.316 µM
[16] = second compound 0.0316 µM, first compound 1 µM
[17] = second compound 0.0316 µM, first compound 3.16 µM
[18] = second compound 0.0316 µM, first compound 10 µM
[19] = second compound 0.1 µM, first compound 0.0316 µM
[20] = second compound 0.1 µM, first compound 0.1 µM
[21] = second compound 0.1 µM, first compound 0.316 µM
[22] = second compound 0.1 µM, first compound 1 µM
[23] = second compound 0.1 µM, first compound 3.16 µM
[24] = second compound 0.1 µM, first compound 10 µM
[25] = second compound 0.316 µM, first compound 0.0316 µM
[26] = second compound 0.316 µM, first compound 0.1 µM
[27] = second compound 0.316 µM, first compound 0.316 µM
[28] = second compound 0.316 µM, first compound 1 µM
[29] = second compound 0.316 µM, first compound 3.16 µM
[30] = second compound 0.316 µM, first compound 10 µM
[31] = second compound 1 µM, first compound 0.0316 µM
[32] = second compound 1 µM, first compound 0.1 µM
[33] = second compound 1 µM, first compound 0.316 µM
[34] = second compound 1 µM, first compound 1 µM
[35] = second compound 1 µM, first compound 3.16 µM
[36] = second compound 1 µM, first compound 10 µM
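Note: spheroids exposed to compounds for seven days before readout.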

`C#Cc1c(F)ccc2cc(O)cc(-c3ncc4c(N5CC6CCC(C5)N6)nc(OCC56CCCN5CC(F)C6)nc4c3F)c12` (stereo unspecified) + CC(Nc1ccc2c(c1)OCCn1cc(N3C(=O)OCC3C(F)F)nc1-2)C(N)=O was tested, and the IC50 (second compound 0.00316 µM) was > 10000 nM, the IC50 (second compound 0.01 µM) was > 10000 nM and the IC50 (second compound 0.0316 µM) was 5350 nM. The IC50 (second compound 0.1 µM) was < 31.6 nM, the IC50 (second compound 0.316 µM) was < 31.6 nM and the IC50 (second compound 1 µM) was < 31.6 nM. It also gave a viability, T/C [1] of 89.2%, a viability, T/C [2] of 97.8% and a viability, T/C [3] of 81.8%. For the same compound, the viability, T/C [4] was 83.5%, the viability, T/C [5] was 75.3% and the viability, T/C [6] was 77.4%. For the same compound, the viability, T/C [7] was 79%, the viability, T/C [8] was 83% and the viability, T/C [9] was 79.2%. For the same compound, the viability, T/C [10] was 75%, the viability, T/C [11] was 68.5% and the viability, T/C [12] was 55%. It also gave a viability, T/C [13] of 62.4%, a viability, T/C [14] of 65% and a viability, T/C [15] of 55.3%. The viability, T/C [16] was 60%, the viability, T/C [17] was 55.6% and the viability, T/C [18] was 44.2%. It also gave a viability, T/C [19] of 45.8%, a viability, T/C [20] of 43.4% and a viability, T/C [21] of 45.5%. The viability, T/C [22] was 44.9%, the viability, T/C [23] was 38.5% and the viability, T/C [24] was 52.9%. For the same compound, the viability, T/C [25] was 35.8%, the viability, T/C [26] was 36.1% and the viability, T/C [27] was 31.9%. It also gave a viability, T/C [28] of 31.5%, a viability, T/C [29] of 25.6% and a viability, T/C [30] of 24.8%. It also gave a viability, T/C [31] of 26.8%, a viability, T/C [32] of 30.1% and a viability, T/C [33] of 27.2%. It also gave a viability, T/C [34] of 26.6%, a viability, T/C [35] of 26.1% and a viability, T/C [36] of 25.1%.

In the case of `CC(Cn1ccc(-c2ccc(C#N)c(Cl)c2)n1)NC(=O)c1cc(C(C)O)[nH]n1` (stereo unspecified) + CC(Nc1ccc2c(c1)OCCn1cc(N3C(=O)OCC3C(F)F)nc1-2)C(N)=O, the IC50 (second compound 0.00316 µM) is reported as > 10000 nM, the IC50 (second compound 0.01 µM) is reported as > 10000 nM and the IC50 (second compound 0.0316 µM) is reported as > 10000 nM. For the same compound, the IC50 (second compound 0.1 µM) was < 31.6 nM, the IC50 (second compound 0.316 µM) was < 31.6 nM and the IC50 (second compound 1 µM) was < 31.6 nM. It also gave a viability, T/C [1] of 85.8%, a viability, T/C [2] of 88.3% and a viability, T/C [3] of 89.4%. It also gave a viability, T/C [4] of 91.4%, a viability, T/C [5] of 97.3% and a viability, T/C [6] of 85.4%. The viability, T/C [7] was 78.3%, the viability, T/C [8] was 81% and the viability, T/C [9] was 80%. It also gave a viability, T/C [10] of 84.5%, a viability, T/C [11] of 84.1% and a viability, T/C [12] of 89.4%. For the same compound, the viability, T/C [13] was 61.1%, the viability, T/C [14] was 70.2% and the viability, T/C [15] was 67.3%. It also gave a viability, T/C [16] of 62.6%, a viability, T/C [17] of 63.8% and a viability, T/C [18] of 64.7%. The viability, T/C [19] was 48.5%, the viability, T/C [20] was 45.5% and the viability, T/C [21] was 54.1%. The viability, T/C [22] was 51.4%, the viability, T/C [23] was 47.3% and the viability, T/C [24] was 48.2%. It also gave a viability, T/C [25] of 39%, a viability, T/C [26] of 32.9% and a viability, T/C [27] of 32.8%. For the same compound, the viability, T/C [28] was 33.7%, the viability, T/C [29] was 35.8% and the viability, T/C [30] was 31.5%. For the same compound, the viability, T/C [31] was 31.1%, the viability, T/C [32] was 26.7% and the viability, T/C [33] was 26.6%. The viability, T/C [34] was 30.5%, the viability, T/C [35] was 28.6% and the viability, T/C [36] was 24.5%.

For `CC1(C)CCC(Nc2ncc(C(F)(F)F)c(-c3c[nH]c4c(P(C)(C)=O)c(C#N)ccc34)n2)CN1` (stereo unspecified) + CC(Nc1ccc2c(c1)OCCn1cc(N3C(=O)OCC3C(F)F)nc1-2)C(N)=O, the IC50 (second compound 0.00316 µM) was < 31.6 nM, the IC50 (second compound 0.01 µM) was < 31.6 nM and the IC50 (second compound 0.0316 µM) was < 31.6 nM. For the same compound, the IC50 (second compound 0.1 µM) was < 31.6 nM, the IC50 (second compound 0.316 µM) was < 31.6 nM and the IC50 (second compound 1 µM) was < 31.6 nM. It also gave a viability, T/C [1] of 28.7%, a viability, T/C [2] of 30% and a viability, T/C [3] of 33.1%. The viability, T/C [4] was 33.6%, the viability, T/C [5] was 32.4% and the viability, T/C [6] was 5.79%. For the same compound, the viability, T/C [7] was 32.1%, the viability, T/C [8] was 30.8% and the viability, T/C [9] was 28.8%. For the same compound, the viability, T/C [10] was 31%, the viability, T/C [11] was 28.3% and the viability, T/C [12] was 4.9%. It also gave a viability, T/C [13] of 25.6%, a viability, T/C [14] of 22.9% and a viability, T/C [15] of 23.5%. It also gave a viability, T/C [16] of 26.1%, a viability, T/C [17] of 25.2% and a viability, T/C [18] of 4.37%. The viability, T/C [19] was 14.3%, the viability, T/C [20] was 18.4% and the viability, T/C [21] was 17.3%. For the same compound, the viability, T/C [22] was 21.5%, the viability, T/C [23] was 19.6% and the viability, T/C [24] was 3.37%. It also gave a viability, T/C [25] of 14.6%, a viability, T/C [26] of 12.9% and a viability, T/C [27] of 14.1%. For the same compound, the viability, T/C [28] was 13.4%, the viability, T/C [29] was 13% and the viability, T/C [30] was 1.45%. The viability, T/C [31] was 11.4%, the viability, T/C [32] was 9.53% and the viability, T/C [33] was 10.6%. For the same compound, the viability, T/C [34] was 11%, the viability, T/C [35] was 12.6% and the viability, T/C [36] was 1.25%.
